Measured values: PMC9871955, “High-throughput screening of SARS-CoV-2 main and papain-like protease inhibitors” (Protein & Cell, 2022)
Read-outs that look alike come from different tables or passages of the source.

Target: SARS-CoV-2 PL^pro (Severe acute respiratory syndrome coronavirus 2, UniProt P0DTD1)
Experiment: SARS-CoV-2 PL^pro enzymatic inhibition assay (substrate Z-RLRGG-AMC)
Assay type: biochemical
[1] = Table S2, PL^pro inhibitors, 40 nmol/L enzyme, 50 µmol/L substrate, read-out: IC50
[2] = Table S6, S/KM = 1/4, read-out: IC50 (μM) at S/KM 1/4
[3] = Table S6, S/KM = 2, read-out: IC50 (μM) at S/KM 2
[4] = Table S6, S/KM = 4, read-out: IC50 (μM) at S/KM 4
[5] = read-out: IC50 (μM) at S/KM 1/2
[6] = read-out: IC50 (μM) at S/KM 1/4
[7] = read-out: IC50 / inhibitory activity toward PL^pro
[8] = Table S3, representative dual inhibitors, read-out: IC50 for PL^pro

Row | Structure (SMILES) | IC50 [1] [µM] | IC50 [2] [µM] | IC50 [3] [µM] | IC50 [4] [µM] | IC50 (read-out: IC50 (μM) at S/KM 1) [µM] | IC50 [5] [µM] | IC50 [6] [µM] | IC50 (Table S6, S/KM = 1, read-out: IC50 (μM) at S/KM 1) [µM] | IC50 [7] [µM] | IC50 [8] [µM]
1 | CCC(C(=O)NCc1ccco1)n1c(Cc2c(Cl)cccc2Cl)nc2ccccc21 (stereo not shown) [CD3226-D010] | 8.61 ± 3.07 | 7.6 ± 1 |  |  |  |  |  |  |  | 
2 | CC(C(=O)NCc1ccco1)n1c(Cc2c(Cl)cccc2Cl)nc2ccccc21 (stereo not shown) [CD3531-C011] | 1.98 ± 0.23 |  | 2.4 ± 0.2 | 2.7 ± 0.1 | 2.2 ± 0.3 | 1.5 | 1.5 ± 0.4 |  |  | 
3 | O=C(NCc1n[nH]c(=S)n1-c1ccc(Br)cc1)c1ccc(Cl)cc1Cl [JK0108-D008] | 58.8 ± 15.3 | 100 ± 29.6 | 200 ± 47.6 | 133 ± 14.7 |  | 94.6 ± 11.3 |  | 102 ± 1.2 | 58.8 ± 15.3 | 
4 | CCOc1cc(C(=O)NCc2n[nH]c(=S)n2-c2ccc(Br)cc2)cc(OCC)c1OCC [JK0109-B004] | 43 ± 0.92 | 2.4 ± 0.1 | 8.5 ± 0.9 | 18.3 ± 1 | 5.9 ± 0.6 | 2.6 ± 0.5 |  |  |  | 43 ± 0.9
5 | COc1ccc(-n2c(CNC(=O)COc3ccc(Cl)cc3Cl)n[nH]c2=S)cc1 [JK0109-B011] | 6.01 ± 0.02 |  | 12.4 ± 1.7 |  | 7.3 ± 0.1 | 7.4 ± 0.6 | 7.9 ± 1.7 |  | 6 | 
6 | COc1ccc(-n2c(S)nnc2CNC(=O)c2cc(OC)c(OC)c(OC)c2)cc1 [JK0109-C011] | 21.2 ± 1.79 |  | 10.7 ± 0.7 | 18.6 ± 2.7 | 9.4 ± 2.9 | 7.1 ± 0.7 | 5.9 ± 0.2 |  |  | 21.2 ± 1.8
7 | O=C(COc1ccc(Cl)cc1)NCc1n[nH]c(=S)n1-c1ccc(Br)cc1 [JK0109-H005] |  |  | 78.5 ± 5.7 | 91.6 ± 8.9 | 33 ± 17.9 | 21.9 ± 2 |  |  |  | 
8 | O=c1sc2ccccc2n1Cc1n[nH]c(=S)n1-c1ccccc1 [JK0946-F007] |  |  | 105 ± 4.7 | 202 ± 50.9 | 43.9 ± 9 | 30.3 ± 2.3 |  |  |  | 
